For assay [1], the system named is Androgen Receptor in human prostate cancer cell lines. The assay is described as follows: Androgen Receptor Degradation-Imaging Assay, all prostate cancer cell lines (FIG. 2). Format: cell-based. The conditions noted are these: 16 hours treatment. How it is done:
Degradation of Androgen Receptor (AR) protein in human prostate cancer cell lines (MDA-PCa-2b (AR T878A/L702H), LNCaP (AR T878A), VCaP (AR wild type and amplified) 22RV1 (AR H875Y) and PC3 (AR negative control)) treated with AR PROTACs was quantified using immunofluorescence. Prostate cancer cells were plated (MDA-PCa-2b, and VCaP 16,000 cells/well; LNCaP and 22RV1 32,000 cells/well, and PC3 8,000 cells/well) in an optical bottom 96-well cell culture plate and allowed to attach overnight. The prostate cancer cell lines were treated for 16 hours with a 10-point 3-fold dilution series (dose range=0.02 nM to 333 nM). PC3 is included as an AR negative control and not treated with compound. […] Following washes with IF buffer, cells were incubated with fluorescent secondary antibody (Goat anti-rabbit Alexa 647; commercially available from Invitrogen) and Hoechst nuclear stain (commercially available from Themo Scientific) prior to quantification of nuclear AR levels via Opera Phenix high-content fluorescent imager using a 40× water objective. […]
The averaged nuclear Alexa 647 median fluorescence intensity (MFI) of PC3 cells is subtracted from the nuclear Alexa 647 MFI of PROTAC treated and DMSO control treated cells. % AR remaining is calculated for PROTAC treatments as a percent of the DMSO control (MFI PROTAC treated/MFI DMSO control treated)*100). […]

The target of another assay is T1, Androgen receptor H875Y (Homo sapiens, UniProt P10275, H875Y).
T1 construct: expressed in transfected cells; host or cells: A549, transduced, puromycin selected
T1 sequence (P10275 1-920 H875Y): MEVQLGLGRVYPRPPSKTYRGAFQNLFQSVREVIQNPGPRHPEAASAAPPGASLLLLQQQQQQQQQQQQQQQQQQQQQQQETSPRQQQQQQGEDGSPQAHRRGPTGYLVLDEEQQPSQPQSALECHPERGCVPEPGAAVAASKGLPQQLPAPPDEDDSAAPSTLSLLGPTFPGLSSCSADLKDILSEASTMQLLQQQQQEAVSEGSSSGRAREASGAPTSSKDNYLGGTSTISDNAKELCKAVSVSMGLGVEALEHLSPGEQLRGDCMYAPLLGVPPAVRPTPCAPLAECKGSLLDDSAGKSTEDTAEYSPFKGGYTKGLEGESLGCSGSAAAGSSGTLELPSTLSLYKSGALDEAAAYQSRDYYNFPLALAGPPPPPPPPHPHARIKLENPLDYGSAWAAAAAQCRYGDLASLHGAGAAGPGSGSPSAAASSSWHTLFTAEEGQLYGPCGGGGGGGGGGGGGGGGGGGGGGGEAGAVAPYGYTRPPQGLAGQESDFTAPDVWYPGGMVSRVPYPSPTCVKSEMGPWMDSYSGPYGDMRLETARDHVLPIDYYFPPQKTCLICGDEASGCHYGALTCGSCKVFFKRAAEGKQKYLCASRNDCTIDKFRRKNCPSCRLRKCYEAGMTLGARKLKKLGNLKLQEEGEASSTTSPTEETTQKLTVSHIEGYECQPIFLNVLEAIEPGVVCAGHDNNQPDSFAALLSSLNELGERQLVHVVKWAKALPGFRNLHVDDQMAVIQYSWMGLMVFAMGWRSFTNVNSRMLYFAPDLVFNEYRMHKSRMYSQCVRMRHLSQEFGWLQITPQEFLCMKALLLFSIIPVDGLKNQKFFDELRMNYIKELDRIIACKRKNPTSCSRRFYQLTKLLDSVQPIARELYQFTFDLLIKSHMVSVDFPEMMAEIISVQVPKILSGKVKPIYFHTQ
The assay is described as follows: Degradation of overexpressed Androgen Receptor in A549 cells (HiBiT), H875Y. Format: cell-based. The settings on record: A549 cells overexpressing AR H875Y, cycloheximide, 24 hours. As for the experimental part:
A549 cells were transduced to express wild type androgen receptor and Androgen receptor containing the following mutations (L702H, H875Y W742C W742L F877L, T878A and T878A/H875Y) with HiBiT tags. Transduced cells following puromycin selection were maintained in a humidified incubator (at 37° C. and 5% CO2 in the DMEM medium supplemented with 1% (v/v) Pen/Strep, 1% (v/v) Glutamax and 10% (v/v) FBS. A549 cells expressing each AR construct were detached from plate and counted. Cell suspensions at density 0.2 million per mL were prepared. Cell suspension was supplemented with 100 μg/mL of cycloheximide to block protein synthesis. Cells were preincubated with cycloheximide for 1 hr before seeding. Cells were seeded onto 384-well plate at density of 5,000 in 25 μL per well. A two fold serial dilution of test compounds, starting from 1 μM (row A) in 2-fold serial dilution series across the column using Tecan D300e dispenser. […]
Nano-Glo HiBiT Lytic reagent was prepared by adding LgBiT protein and Nano-Glo® substrate to lytic buffer pre-equilibrated at room temperature following manufacturer protocol (https://www.promega.co.uk/resources/protocols/technical-manuals/101/nanoglo-luciferase-assay-system-protocol). […] The plates were then centrifuged (100×G, 1 min) and incubated on shaker for 10 mins before taking readings on Pherastar Luminescence microplate reader. […]
For orientation: HiBiT is a short tag that completes a luciferase, so light tracks the accessible tagged protein.

The values below come from patent US12577231B2, “Androgen receptor PROTACS” (GlaxoSmithKline Intellectual Property Development Limited, priority 2023, dated 2026).

As for `COc1cc(O[C@H]2C(C)(C)[C@H](NC(=O)c3ccc(N4CCC(CN5CCC(n6ncc7c(N8CCC(=O)NC8=O)nccc76)CC5)CC4)c(F)c3)C2(C)C)ccc1C#N` [Example 20, N-((1r,3r)-3-(4-Cyano-3-methoxyphenoxy)-2,2,4,4-tetramethylcyclobutyl)-4-(4-((4-(4-(2,4-dioxotetrahydropyrimidin-1(2H)-yl)-1H-pyrazolo[4,3-c]pyridin-1-yl)piperidin-1-yl)methyl)piperidin-1-yl)-3-fluorobenzamide], the “percentage of Androgen Receptor remaining versus concentration (FIG. 2)” value in assay [1] is listed as “Good reductions”. Also, the “Summary pXC50” value at Androgen receptor H875Y stood at 8.83.
